In US9040545B2, “Heterocyclyl pyrazolopyrimidine analogues as selective JAK inhibitors” (Cellzome Limited, priority 2010, dated 2015) one finds IC50 data, which are given here for 19 compounds.

The assay addresses T1, JAK3 (Homo sapiens, UniProt P52333).
T1 construct: endogenous in cells; host or cells: mixed Molt4/Ramos lysate (1:2)
T1 sequence (P52333 1-1124): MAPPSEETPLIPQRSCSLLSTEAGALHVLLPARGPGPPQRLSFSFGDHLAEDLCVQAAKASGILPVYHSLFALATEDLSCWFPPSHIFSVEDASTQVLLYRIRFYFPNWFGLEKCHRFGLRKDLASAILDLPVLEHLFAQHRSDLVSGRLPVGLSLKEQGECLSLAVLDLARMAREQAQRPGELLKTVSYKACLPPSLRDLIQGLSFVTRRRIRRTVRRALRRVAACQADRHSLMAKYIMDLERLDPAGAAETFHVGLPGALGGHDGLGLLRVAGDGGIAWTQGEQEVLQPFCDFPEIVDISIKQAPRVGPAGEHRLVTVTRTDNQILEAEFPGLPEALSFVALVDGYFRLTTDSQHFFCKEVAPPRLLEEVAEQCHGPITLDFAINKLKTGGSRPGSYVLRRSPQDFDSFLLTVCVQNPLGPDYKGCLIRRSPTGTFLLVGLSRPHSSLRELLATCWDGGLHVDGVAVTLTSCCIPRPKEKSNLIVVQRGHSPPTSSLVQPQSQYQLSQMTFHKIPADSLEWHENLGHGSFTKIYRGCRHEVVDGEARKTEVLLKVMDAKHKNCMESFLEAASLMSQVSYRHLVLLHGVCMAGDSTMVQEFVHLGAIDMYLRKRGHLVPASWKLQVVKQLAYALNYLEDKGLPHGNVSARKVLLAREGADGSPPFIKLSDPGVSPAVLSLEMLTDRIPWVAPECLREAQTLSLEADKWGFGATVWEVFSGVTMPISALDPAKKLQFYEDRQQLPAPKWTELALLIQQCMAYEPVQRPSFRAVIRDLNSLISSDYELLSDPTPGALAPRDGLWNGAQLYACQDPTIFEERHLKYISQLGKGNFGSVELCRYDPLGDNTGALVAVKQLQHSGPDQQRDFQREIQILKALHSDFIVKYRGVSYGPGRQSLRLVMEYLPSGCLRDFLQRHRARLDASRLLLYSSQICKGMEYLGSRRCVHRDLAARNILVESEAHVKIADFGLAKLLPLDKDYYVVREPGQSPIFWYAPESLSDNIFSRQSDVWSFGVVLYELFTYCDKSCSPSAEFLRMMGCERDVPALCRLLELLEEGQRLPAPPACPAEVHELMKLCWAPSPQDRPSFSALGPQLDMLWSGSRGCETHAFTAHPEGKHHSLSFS
In words: Kinobeads assay, JAK3. The settings on record: mixed Molt4/Ramos lysate, read-out: Inhibition values (IC50) JAK3. Type of assay: binding. The protocol:
The compounds of the present invention as described in the previous examples were tested in a Kinobeads™ assay as described for ZAP-70 (WO-A 2007/137867). Briefly, test compounds (at various concentrations) and the affinity matrix with the immobilized aminopyrido-pyrimidine ligand 24 were added to cell lysate aliquots and allowed to bind to the proteins in the lysate sample. After the incubation time the beads with captured proteins were separated from the lysate. Bound proteins were then eluted and the presence of JAK2 and JAK3 was detected and quantified using specific antibodies in a dot blot procedure and the Odyssey infrared detection system. Dose response curves for individual kinases were generated and IC50 values calculated. Kinobeads™ assays for ZAP-70 (WO-A 2007/137867) and for kinase selectivity profiling (WO-A 2006/134056) have been previously described.
The affinity matrix was washed two times with 15 mL of 1×DP buffer containing 0.2% NP40 (IGEPAL® CA-630, Sigma, #I3021) and then resuspended in 1×DP buffer containing 0.2% NP40 (3% beads slurry).
5×DP buffer 250 mM Tris-HCl pH 7.4, 25% Glycerol, 7.5 mM MgCl2, 750 mM NaCl, 5 mM Na3VO4; filter the 5×DP buffer through a 0.22 μm filter and store in aliquots at −80° C. The 5×DP buffer is diluted with H2O to 1×DP buffer containing 1 mM DTT and 25 mM NaF.
Stock solutions of test compounds were prepared in DMSO. In a 96 well plate 30 μL solution of diluted test compounds at 5 mM in DMSO were prepared. Starting with this solution a 1:3 dilution series (9 steps) was prepared. For control experiments (no test compound) a buffer containing 2% DMSO was used.
Molt4 cells (ATCC catalogue number CRL-1582) and Ramos cells (ATCC catalogue number CRL-1596) were grown in 1 L Spinner flasks (Integra Biosciences, #182101) in suspension in RPMI 1640 medium (Invitrogen, #21875-034) supplemented with 10% Fetal Bovine Serum (Invitrogen) at a density between 0.15×106 and 1.2×10^6 cells/mL. Cells were harvested by centrifugation, washed once with 1×PBS buffer (Invitrogen, #14190-094) and cell pellets were frozen in liquid nitrogen and subsequently stored at −80° C. Cells were homogenized in a Potter S homogenizer in lysis buffer: 50 mM Tris-HCl, 0.8% NP40, 5% glycerol, 150 mM NaCl, 1.5 mM MgCl2, 25 mM NaF, 1 mM sodium vanadate, 1 mM DTT, pH 7.5. One complete EDTA-free tablet (protease inhibitor cocktail, Roche Diagnostics, 1873580) per 25 mL buffer was added. The material was dounced 10 times using a mechanized POTTER S, transferred to 50 mL falcon tubes, incubated for 30 minutes on ice and spun down for 10 minutes at 20,000 g at 4° C. (10,000 rpm in Sorvall SLA600, precooled). The supernatant was transferred to an ultracentrifuge (UZ)-polycarbonate tube (Beckmann, 355654) and spun for 1 hour at 100,000 g at 4° C. (33.500 rpm in Ti50.2, precooled). The supernatant was transferred again to a fresh 50 mL falcon tube, the protein concentration was determined by a Bradford assay (BioRad) and samples containing 50 mg of protein per aliquot were prepared. The samples were immediately used for experiments or frozen in liquid nitrogen and stored frozen at −80° C.
Cell lysate (approximately 50 mg protein per plate) was thawed in a water bath at room temperature and then stored on ice. To the thawed cell lysate 1×DP 0.8% NP40 buffer containing protease inhibitors (1 tablet for 25 mL buffer; EDTA-free protease inhibitor cocktail; Roche Diagnostics 1873580) was added in order to reach a final protein concentration of 10 mg/mL total protein. The diluted cell lysate was stored on ice. Mixed Molt4/Ramos lysate was prepared by combining one volume of Molt4 lysate and two volumes of Ramos lysate (ratio 1:2).
To a 96 well filter plate (Multiscreen HTS, BV Filter Plates, Millipore #MSBVN1250) were added per well: 100 μL affinity matrix (3% beads slurry), 3 μL of compound solution, and 50 μL of diluted lysate. […]
Usually IC50 stands for the point on the concentration scale where inhibition reaches its midpoint. In the case of `Cn1cc(Nc2ncc3cnn(Cc4cccc(N5CCOCC5)c4F)c3n2)cn1` [Example 21, 1-(2-Fluoro-3-morpholinobenzyl)-N-(1-methyl-1H-pyrazol-4-yl)-1H-pyrazolo[3,4-d]pyrimidin-6-amine], the half-inhibitory concentration (IC50) was less than 100 nM.

For `Cn1cc(Nc2ncc3cnn(Cc4cccc(N5CCNCC5)c4)c3n2)cn1` [Example 22, N-(1-Methyl-1H-pyrazol-4-yl)-1-(3-(piperazin-1-yl)benzyl)-1H-pyrazolo[3,4-d]pyrimidin-6-amine], the half-maximal inhibitory concentration (IC50) was less than 100 nM.

As to `FC(F)Cn1cc(Nc2ncc3cnn(Cc4cccc(N5CCOCC5)c4)c3n2)cn1` [Example 23, N-(1-(2,2-Difluoroethyl)-1H-pyrazol-4-yl)-1-(3-morpholinobenzyl)-1H-pyrazolo[3,4-d]pyrimidin-6-amine], the concentration for half-maximal inhibition (IC50) was less than 100 nM.

In the case of `CNC(=O)CCn1cc(Nc2ncc3cnn(Cc4cccc(N5CCOCC5)c4)c3n2)cn1` [Example 24, N-Methyl-3-(4-((1-(3-morpholinobenzyl)-1H-pyrazolo[3,4-d]pyrimidin-6-yl)amino)-1H-pyrazol-1-yl)propanamide], the concentration for half-maximal inhibition (IC50) is less than 100 nM.

`Cn1cc(Nc2ncc3cnn(Cc4cccc(N5CCS(=O)(=O)CC5)c4)c3n2)cn1` [Example 25, 4-(3-((6-((1-Methyl-1H-pyrazol-4-yl)amino)-1H-pyrazolo[3,4-d]pyrimidin-1-yl)methyl)phenyl)thiomorpholine 1,1-dioxide]: the IC50 was less than 100 nM.

With `Cn1cc(Nc2ncc3cnn(Cc4cccc(N5CC6CCC(C5)O6)c4)c3n2)cn1` [Example 26], the IC50 is less than 100 nM.

Consider `Cn1cc(Nc2ncc3cnn(Cc4cccc(N5CCOCC5=O)c4)c3n2)cn1` [Example 27, 4-(3-((6-((1-Methyl-1H-pyrazol-4-yl)amino)-1H-pyrazolo[3,4-d]pyrimidin-1-yl)methyl)phenyl)morpholin-3-one], for which the IC50 was less than 100 nM.

On to `CN(C)CCCn1cc(Nc2ncc3cnn(Cc4cccc(N5CCOCC5=O)c4)c3n2)cn1` [Example 28, 4-(3-((6-((1-(3-(Dimethylamino)propyl)-1H-pyrazol-4-yl)amino)-1H-pyrazolo[3,4-d]pyrimidin-1-yl)methyl)phenyl)morpholin-3-one], for which the IC50 was less than 100 nM.

As to `O=C1COCCN1c1cccc(Cn2ncc3cnc(Nc4cnn(CCO)c4)nc32)c1` [Example 29, 4-(3-((6-((1-(2-Hydroxyethyl)-1H-pyrazol-4-yl)amino)-1H-pyrazolo[3,4-d]pyrimidin-1-yl)methyl)phenyl)morpholin-3-one], the 50% inhibitory concentration (IC50) was less than 100 nM.

On to `O=C1CCCN1CCCn1cc(Nc2ncc3cnn(Cc4cccc(N5CCOCC5)c4)c3n2)cn1` [Example 30, 1-(3-(4-((1-(3-Morpholinobenzyl)-1H-pyrazolo[3,4-d]pyrimidin-6-yl)amino)-1H-pyrazol-1-yl)propyl)pyrrolidin-2-one], for which the IC50 is less than 100 nM.

For `CN(C)CC1(Cn2cc(Nc3ncc4cnn(Cc5cccc(N6CCOCC6)c5)c4n3)cn2)COC1` [Example 31, N-(1-((3-((Dimethylamino)methyl)oxetan-3-yl)methyl)-1H-pyrazol-4-yl)-1-(3-morpholinobenzyl)-1H-pyrazolo[3,4-d]pyrimidin-6-amine], the IC50 was less than 100 nM.

Consider `CC(CN(C)C)Cn1cc(Nc2ncc3cnn(Cc4cccc(N5CCOCC5)c4)c3n2)cn1` (stereo not shown) [Example 32, N-(1-(3-(Dimethylamino)-2-methylpropyl)-1H-pyrazol-4-yl)-1-(3-morpholinobenzyl)-1H-pyrazolo[3,4-d]pyrimidin-6-amine], for which the 50% inhibitory concentration (IC50) is less than 100 nM.

Turning to `CN(C)CC(O)Cn1cc(Nc2ncc3cnn(Cc4cccc(N5CCOCC5)c4)c3n2)cn1` (stereo not shown) [Example 33, 1-(Dimethylamino)-3-(4-((1-(3-morpholinobenzyl)-1H-pyrazolo[3,4-d]pyrimidin-6-yl)amino)-1H-pyrazol-1-yl)propan-2-ol], the 50% inhibitory concentration (IC50) is less than 100 nM.

As for `NCCCn1cc(Nc2ncc3cnn(Cc4cccc(N5CCOCC5)c4)c3n2)cn1` [Example 34, N-(1-(3-Aminopropyl)-1H-pyrazol-4-yl)-1-(3-morpholinobenzyl)-1H-pyrazolo[3,4-d]pyrimidin-6-amine], the IC50 was less than 100 nM.

For the compound `O=C(CCn1cc(Nc2ncc3cnn(Cc4cccc(N5CCOCC5)c4)c3n2)cn1)NC1CC1` [Example 35, N-Cyclopropyl-3-(4-((1-(3-morpholinobenzyl)-1H-pyrazolo[3,4-d]pyrimidin-6-yl)amino)-1H-pyrazol-1-yl)propanamide], the IC50 is less than 100 nM.

On to `Cn1cc(Nc2ncc3cnn(Cc4cccc(N5CCNCC5=O)c4)c3n2)cn1` [Example 36, 1-(3-((6-((1-Methyl-1H-pyrazol-4-yl)amino)-1H-pyrazolo[3,4-d]pyrimidin-1-yl)methyl)phenyl)piperazin-2-one], for which the IC50 was less than 100 nM.

On to `Cn1cc(Nc2ncc3cnn(Cc4cc(N5CCOCC5)cc(F)c4F)c3n2)cn1` [Example 37, 1-(2,3-Difluoro-5-morpholinobenzyl)-N-(1-methyl-1H-pyrazol-4-yl)-1H-pyrazolo[3,4-d]pyrimidin-6-amine], for which the concentration for half-maximal inhibition (IC50) fell in the range of 100 to 1000 nM.

For the compound `Cn1cc(Nc2ncc3cnn(Cc4c(F)ccc(N5CCOCC5)c4F)c3n2)cn1` [Example 38, 1-(2,6-Difluoro-3-morpholinobenzyl)-N-(1-methyl-1H-pyrazol-4-yl)-1H-pyrazolo[3,4-d]pyrimidin-6-amine], the IC50 is less than 100 nM.

As to `OCCn1cc(Nc2ncc3cnn(Cc4cccc(N5CCOCC5)c4F)c3n2)cn1` [Example 39, 2-(4-((1-(2-Fluoro-3-morpholinobenzyl)-1H-pyrazolo[3,4-d]pyrimidin-6-yl)amino)-1H-pyrazol-1-yl)ethanol], the IC50 was less than 100 nM.
